The NIST ThermoML archive (doi:10.1016/j.fluid.2015.04.017)

Experiment: xn = mol fraction of the nth substance listed
Conditions: 101 kPa, Liquid; for viscosity: Concentric cylinders viscometry; for mass density: Vibrating tube method

CCOC(=O)C(C)O (stereo not drawn) [DL-ethyl lactate] + CCC(C)=O
Conditions	mass density [kg/m3]	viscosity [mPa·s]
288.15 K, x1 = 0.0999	840.096	0.5127
288.15 K, x1 = 0.1999	868.347	0.6157
288.15 K, x1 = 0.3001	894.852	0.7578
288.15 K, x1 = 0.4001	919.605	0.9204
288.15 K, x1 = 0.5	942.723	1.128
288.15 K, x1 = 0.5998	964.577	1.384
288.15 K, x1 = 0.6999	985.434	1.707
288.15 K, x1 = 0.8	1005.13	2.113
288.15 K, x1 = 0.9001	1023.3	2.63
288.15 K, x1 = 1	1039.28	3.207
293.15 K, x1 = 0.0999	834.849	0.4886
293.15 K, x1 = 0.1999	863.068	0.5824
293.15 K, x1 = 0.3001	889.537	0.7086
293.15 K, x1 = 0.4001	914.27	0.8532
293.15 K, x1 = 0.5	937.369	1.035
293.15 K, x1 = 0.5998	959.204	1.254
293.15 K, x1 = 0.6999	980.043	1.527
293.15 K, x1 = 0.8	999.721	1.862
293.15 K, x1 = 0.9001	1017.88	2.287
293.15 K, x1 = 1	1033.84	2.752
298.15 K, x1 = 0.0999	829.575	0.4651
298.15 K, x1 = 0.1999	857.764	0.5514
298.15 K, x1 = 0.3001	884.198	0.6643
298.15 K, x1 = 0.4001	908.905	0.7937
298.15 K, x1 = 0.5	931.98	0.9526
298.15 K, x1 = 0.5998	953.795	1.141
298.15 K, x1 = 0.6999	974.621	1.375
298.15 K, x1 = 0.8	994.289	1.658
298.15 K, x1 = 0.9001	1012.45	2.007
298.15 K, x1 = 1	1028.39	2.39
303.15 K, x1 = 0.0999	824.277	0.4429
303.15 K, x1 = 0.1999	852.434	0.5214
303.15 K, x1 = 0.3001	878.836	0.6229
303.15 K, x1 = 0.4001	903.522	0.7397
303.15 K, x1 = 0.5	926.577	0.8816
303.15 K, x1 = 0.5998	948.373	1.046
303.15 K, x1 = 0.6999	969.181	1.248
303.15 K, x1 = 0.8	988.835	1.489
303.15 K, x1 = 0.9001	1006.99	1.783
303.15 K, x1 = 1	1022.92	2.097
308.15 K, x1 = 0.0999	818.947	0.4211
308.15 K, x1 = 0.1999	847.072	0.4939
308.15 K, x1 = 0.3001	873.449	0.5848
308.15 K, x1 = 0.4001	898.112	0.6909
308.15 K, x1 = 0.5	921.146	0.8175
308.15 K, x1 = 0.5998	942.923	0.9624
308.15 K, x1 = 0.6999	963.714	1.138
308.15 K, x1 = 0.8	983.356	1.345
308.15 K, x1 = 0.9001	1001.5	1.595
308.15 K, x1 = 1	1017.42	1.858
313.15 K, x1 = 0.0999	813.582	0.4001
313.15 K, x1 = 0.1999	841.677	0.4671
313.15 K, x1 = 0.3001	868.027	0.5492
313.15 K, x1 = 0.4001	892.67	0.6463
313.15 K, x1 = 0.5	915.688	0.7602
313.15 K, x1 = 0.5998	937.45	0.8883
313.15 K, x1 = 0.6999	958.226	1.042
313.15 K, x1 = 0.8	977.854	1.222
313.15 K, x1 = 0.9001	995.984	1.436
313.15 K, x1 = 1	1011.9	1.658
318.15 K, x1 = 0.0999	808.184	0.3798
318.15 K, x1 = 0.1999	836.25	0.4415
318.15 K, x1 = 0.3001	862.576	0.5165
318.15 K, x1 = 0.4001	887.197	0.6052
318.15 K, x1 = 0.5	910.198	0.709
318.15 K, x1 = 0.5998	931.944	0.8229
318.15 K, x1 = 0.6999	952.707	0.9589
318.15 K, x1 = 0.8	972.323	1.116
318.15 K, x1 = 0.9001	990.445	1.3
318.15 K, x1 = 1	1006.36	1.491
323.15 K, x1 = 0.0999	802.753	0.3598
323.15 K, x1 = 0.1999	830.788	0.4212
323.15 K, x1 = 0.3001	857.09	0.4897
323.15 K, x1 = 0.4001	881.694	0.5699
323.15 K, x1 = 0.5	904.683	0.6649
323.15 K, x1 = 0.5998	926.419	0.7673
323.15 K, x1 = 0.6999	947.168	0.8872
323.15 K, x1 = 0.8	966.77	1.028
323.15 K, x1 = 0.9001	984.879	1.193
323.15 K, x1 = 1	1000.79	1.349
